The source of these data is ChEMBL document CHEMBL5154641, “Targeting transthyretin in Alzheimer's disease: Drug discovery of small-molecule chaperones as disease-modifying drug candidates for Alzheimer's disease” (Eur J Med Chem, 2021).

One test has as its system SH-SY5Y. Nature of the test: Neuroprotective activity against amyloid beta (1 to 42 residues)-induced cell injury in human SH-SY5Y cells assessed as reduction in caspase 3 level. The format is functional, cell-based.
The target of test [1] is Transthyretin (Homo sapiens) (UniProt P02766). Nature of the test: Displacement of [125I]-T4 from human recombinant TTR expressed in Escherichia coli BL21(DE3) Star by gamma spectrometric analysis. (In general: In a radioligand displacement assay an active substance lowers the binding of a labelled ligand.)
The species named for test [2] is Homo sapiens. Kind of test: Binding affinity to wild type TTR/Amyloid beta (1 to 40 residues) binary complex (unknown origin) assessed as change in enthalpy binary by isothermal titration calorimetry. On the technique in general: Isothermal titration calorimetry measures the heat released or taken up as one component is titrated into another.
The species entered for test [3] is Homo sapiens. Kind of test: Binding affinity to wild type TTR/Amyloid beta (1 to 40 residues) binary complex (unknown origin) assessed as Gibbs free energy change for binary complex by isothermal titration calorimetry.
For test [4], the species on record is Homo sapiens. Nature of the test: Binding affinity to wild type TTR/Amyloid beta (1 to 40 residues) binary complex (unknown origin) assessed as change in entropy for binary complex by isothermal titration calorimetry.
A short description of test [5]: Binding affinity to wild type TTR/Amyloid beta (1 to 40 residues) binary complex (unknown origin) assessed as complex dissociation constant by isothermal titration calorimetry. Also on record: species or system Homo sapiens.

Structures are written as SMILES. Active and inactive are the calls of the source. The rule behind the calls is not given here.

As for `O=C(O)c1cc(-c2ccc(F)cc2F)cc(I)c1O`, the outcome (in the test on SH-SY5Y; in test [1]) was Active. The deltaH in the test filed under Homo sapiens [2] is -1.54 kcal/mol. The deltaG in the test listed under Homo sapiens [3] is -7.67 kcal/mol. For the same molecule, the -TdeltaS in the test listed under Homo sapiens [4] is -6.13 kcal/mol.

Consider `C=Cc1cc2oc(-c3ccc(O)c(F)c3)nc2cc1O`, for which the outcome in test [1] was Active.

Regarding `CC/C(=C(/CC)c1ccc(O)cc1)c1ccc(O)cc1`, the result in test [1] was Active.

In the case of `CCCCN(CCCC)C[C@H](O)c1cc(Cl)cc2c1-c1ccc(Cl)cc1/C2=C/c1ccc(Cl)cc1`, in test [1], the result was Active.

Turning to `CCc1ccc(CCOc2ccc(CC3SC(=O)NC3=O)cc2)nc1` (stereo not drawn), the outcome in test [1] was Active.

Consider `COc1ccccc1Oc1ccc(N(Cc2cccnc2)S(=O)(=O)CC(F)(F)F)cc1`, for which the result in test [1] was Active.

`Cc1ccc(C(=O)c2cc(O)c(O)c([N+](=O)[O-])c2)cc1`: the outcome in test [1] was Active.

`O=C(O)CCNC(=O)CCNC(=O)c1cc(-c2ccc(F)cc2F)cc(I)c1O`: the result in test [1] was Active.

Take `O=C(O)c1cc(-c2ccc3ccccc3c2)cc(I)c1O`: the result in test [1] was Active.

Turning to `O=C(O)c1cc(/N=N/c2cccc([N+](=O)[O-])c2)cc(I)c1O`, the result in test [1] was Active.

Consider `O=C(O)c1cc(/N=N/c2cccc([N+](=O)[O-])c2)ccc1O`, for which the outcome in test [1] was Active.

Consider `O=C(O)c1ccc2nc(-c3cc(Cl)cc(Cl)c3)oc2c1`, for which, in test [1], the result was Active.

In the case of `Oc1c(I)cc(Cl)c2cccnc12`, the result in test [1] was Active.

Turning to `Oc1c(I)cc(I)cc1I`, the outcome in test [1] was Active.

As to `O=C(O)c1ccccc1Nc1cccc(C(F)(F)F)c1` [FLUFENAMIC ACID], the outcome with SH-SY5Y was Active. Further, the Kd in test [5] came out at 2340 nM. In addition, the deltaH in the test listed under Homo sapiens [2] was -3.66 kcal/mol. Besides, the deltaG in the test listed under Homo sapiens [3] was -8.28 kcal/mol. In the test listed under Homo sapiens [4], the -TdeltaS worked out at 4.62 kcal/mol.

Consider `O=c1cc(-c2ccc(O)c(O)c2)oc2cc(O)cc(O)c12` [LUTEOLIN], for which the outcome (in the test with SH-SY5Y; in test [1]) was Active. In test [5], the Kd came out at 1520 nM. In the test listed under Homo sapiens [2], the deltaH was -0.53 kcal/mol. In the test listed under Homo sapiens [3], the deltaG is -7.93 kcal/mol. Further, the -TdeltaS in the test listed under Homo sapiens [4] came to 7.3 kcal/mol.

Take `O=C(O)c1cc(/N=N/c2ccc(O)c(C(=O)O)c2)ccc1O` [OLSALAZINE]: the result in the test with SH-SY5Y was Active. Also, the dissociation constant Kd in test [5] came to 810 nM. In addition, the deltaH in the test listed under Homo sapiens [2] is -8.72 kcal/mol. For the same molecule, the deltaG in the test filed under Homo sapiens [3] was -8.7 kcal/mol. For the same molecule, the -TdeltaS in the test listed under Homo sapiens [4] was 0.02 kcal/mol.

With `CC1=C(CC(=O)O)c2cc(F)ccc2/C1=C\c1ccc([S+](C)[O-])cc1` (stereo not drawn) [SULINDAC], in test [5], the Kd came out at 3420 nM. Besides, the deltaH in the test filed under Homo sapiens [2] is -3.23 kcal/mol. In the test filed under Homo sapiens [3], the deltaG was -8.15 kcal/mol. In the test listed under Homo sapiens [4], the -TdeltaS was -4.92 kcal/mol.

Broadly, the Kd is the equilibrium constant for the complex coming apart.
